{
  "source": "paper PMC11406360",
  "about": "“The enzymatic oxygen sensor cysteamine dioxygenase binds its protein substrates through their N-termini” (The Journal of Biological Chemistry, 2024)",
  "molecules": {"B1": {"name": "RGS5^FL-C2A: full-length RGS5 C2A mutant (protein)", "chain": "MAKGLAALPHSCLERAKEIKIKLGILLQKPDSVGDLVIPYNEKPEKPAKTQKTSLDEALQWRDSLDKLLQNNYGLASFKSFLKSEFSEENLEFWIACEDYKKIKSPAKMAEKAKQIYEEFIQTEAPKEVNIDHFTKDITMKNLVEPSLSSFDMAQKRIHALMEKDSLPRFVRSEFYQELIK", "modifications": "left off: His tag, N-terminal, cleaved | SUMO, N-terminal, cleaved", "notes": "full-length RGS5 C2A mutant"}},
  "note": "*1 amine or outer side, *2 acyl side, *3 side chain or, on linkers, in order; H or OH if unused. Where a SMILES comes first, the peptide text is derived from it. Where no end group is shown, it is not given here. [ ]: non-standard residue; d: D form. Cys(O2H) = cysteine sulfinic acid (N-terminal cysteine sulfinylated), O=C([C@H](CS(=O)O[*:3])N[*:1])[*:2]",
  "data": [
    {"biological_target": "T1, ADO (2-aminoethanethiol dioxygenase), iron-bound wild type (Homo sapiens, UniProt Q96SZ5)", "T1 construct": "Full-length human ADO (UniProt ID: Q96SZ5) was cloned; made in house; host or cells: Rosetta2(DE3) Escherichia coli", "T1 sequence (Q96SZ5 1-270)": "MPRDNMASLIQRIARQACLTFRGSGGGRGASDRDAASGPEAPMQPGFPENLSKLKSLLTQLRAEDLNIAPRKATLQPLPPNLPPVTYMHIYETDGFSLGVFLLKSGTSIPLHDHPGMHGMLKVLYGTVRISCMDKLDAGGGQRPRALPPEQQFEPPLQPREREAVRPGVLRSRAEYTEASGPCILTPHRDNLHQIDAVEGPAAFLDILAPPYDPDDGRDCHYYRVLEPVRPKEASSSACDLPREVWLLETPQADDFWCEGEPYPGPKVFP", "experiment": "SPR binding of peptide/protein substrates to immobilised ADO", "details": "SPR steady state, 1:1 binding model, biotinylated ADO on Biotin CAP chip, 4 °C, 20 mM Hepes pH 7.5, 500 mM NaCl, 10 mM DTT, 0.1% tween-20; geometric mean (± SD) of minimum three independent measurements", "from_the_text": "(§1) ADO catalyzes the O2-dependent sulfinylation of Nt-cys residues, which reportedly bind to the iron cofactor in a monodentate arrangement through ligation of the thiol group ([14], [15]). To test the importance of Nt-cys modifications and substitutions on ADO association, a SPR assay was established. […] Data collected under steady state conditions is presented in the main text and kinetic constants are provided in the Tables S1–S8 (alongside steady state measurements). All measurements were collected at 4 °C to minimize enzyme activity.\n(§2) SPR measurements were made using a Biacore T200 (Cytiva) instrument and data were analyzed using the Biacore Insight Evaluation Software (Cytiva; https://www.cytivalifesciences.com/en/us/shop/protein-analysis/spr-label-free-analysis/spr-software-and-extensions/biacore-insight-evaluation-software-p-23528). Biotinylated-ADO was immobilized on a Biotin CAP chip (Cytiva) with a target density of ∼2500 to 3000 RU and peptide/protein substrates were injected over the chip. […] A buffer comprising 20 mM Hepes pH 7.5, 500 mM NaCl, 10 mM DTT, and 0.1% (v/v) tween-20 was used as the running buffer at a flow rate of 50 μl/min.\n(§3) For metal-chelation experiments, a mixture of 10 mM 1, 10-phenanthroline and 100 mM EDTA (pH 8) was injected onto the chip using 10 × 60 s injections at a 100 μl/min flow rate. […] The instrument and chip were primed into buffer excluding reducing agents before conducting metal chelation and iron reconstitution.", "values": [
      {"molecule": "K3W: RGS5 third position mutant peptide (CWGLAALPHSCLER)", "Equilibrium dissociation constant KD": "the most tolerated"},
      {"molecule": "K3R: RGS5 third position mutant peptide (CRGLAALPHSCLER)", "Equilibrium dissociation constant KD": "the most tolerated"},
      {"molecule": "RGS5-C2A: RGS5 peptide with Nt-cys to alanine (AKGLAALPHSCLER)", "Equilibrium dissociation constant KD": "No binding"},
      {"molecule": "RGS5-Ox: Nt-sulfinylated RGS5 peptide acquired through preincubation with ADO ([Cys(O2H)]KGLAALPHSCLER)", "Equilibrium dissociation constant KD": "No binding"},
      {"molecule": "Ac-RGS5: Nt-acetylated RGS5 peptide (Ac-CKGLAALPHSCLER; cysteine pairing not given here)", "Equilibrium dissociation constant KD": "No binding"},
      {"molecule": "K3L: RGS5 third position mutant peptide (CLGLAALPHSCLER)", "Equilibrium dissociation constant KD": "the most tolerated"},
      {"molecule": "K3Y: RGS5 third position mutant peptide (CYGLAALPHSCLER)", "Equilibrium dissociation constant KD": "the most tolerated"},
      {"molecule": "B1", "Equilibrium dissociation constant KD": "prevented binding"}
    ]},
    {"biological_target": "T1, ADO (2-aminoethanethiol dioxygenase), iron-bound wild type", "experiment": "SPR binding of peptide/protein substrates to immobilised ADO", "details": "SPR steady state, 1:1 binding model, biotinylated ADO on Biotin CAP chip, 4 °C, 20 mM Hepes pH 7.5, 500 mM NaCl, 10 mM DTT, 0.1% tween-20; geometric mean (± SD) of minimum three independent measurements; read-out: Equilibrium dissociation constant KD", "from_the_text": "as §1, §2, §3", "units": {"Kd": "nM"}, "values": [
      {"molecule": "NC(=O)[C@@H]1CCCN1C(=O)[C@H](Cc1ccccc1)NC(=O)[C@@H](N)CS", "note": "[IL32 tripeptide] (H-Cys-Phe-Pro-NH2; C-terminus assumed)", "Kd": "130 ± 3.7"},
      {"molecule": "CC(C)C[C@H](NC(=O)CNC(=O)[C@H](CCCCN)NC(=O)[C@@H](N)CS)C(=O)N[C@@H](C)C(=O)N[C@@H](C)C(=O)N[C@@H](CC(C)C)C(=O)N[C@@H](C)C(=O)N[C@@H](Cc1c[nH]cn1)C(=O)N[C@@H](CO)C(=O)N[C@@H](CS)C(=O)N[C@@H](CC(C)C)C(=O)N[C@@H](CCC(=O)O)C(=O)N[C@@H](CCCNC(=N)N)C(N)=O", "note": "[RGS5-P9A] (H-CKGLAALAHSCLER-NH2)", "Kd": "250 ± 23"},
      {"molecule": "CC(C)C[C@H](NC(=O)CNC(=O)[C@H](CCCCN)NC(=O)[C@@H](N)CS)C(=O)N[C@@H](C)C(=O)N[C@@H](C)C(=O)N[C@@H](CC(C)C)C(=O)N1CCC[C@H]1C(=O)N[C@@H](Cc1c[nH]cn1)C(=O)N[C@@H](CO)C(=O)N[C@@H](CS)C(=O)N[C@@H](CC(C)C)C(=O)N[C@@H](C)C(=O)N[C@@H](CCCNC(=N)N)C(N)=O", "note": "[RGS5-E14A] (H-CKGLAALPHSCLAR-NH2)", "Kd": "260 ± 42"},
      {"molecule": "SKGLAALPHSCLER-NH2 [RGS5-C2S]", "Kd": "42000 ± 5500"},
      {"molecule": "CC(C)C[C@H](NC(=O)CNC(=O)[C@H](CCCCN)NC(=O)[C@@H](N)CS)C(=O)N[C@@H](C)C(=O)N[C@@H](C)C(=O)N[C@@H](CC(C)C)C(=O)N1CCC[C@H]1C(=O)N[C@@H](Cc1c[nH]cn1)C(=O)N[C@@H](CO)C(=O)N[C@@H](CS)C(=O)N[C@@H](C)C(=O)N[C@@H](CCC(=O)O)C(=O)N[C@@H](CCCNC(=N)N)C(N)=O", "note": "[RGS5-L13A] (H-CKGLAALPHSCAER-NH2)", "Kd": "260 ± 32"}
    ]},
    {"biological_target": "T1, ADO (2-aminoethanethiol dioxygenase), iron-bound wild type", "experiment": "SPR binding of peptide/protein substrates to immobilised ADO", "details": "SPR, 4 °C; relative to native IL32 peptide", "from_the_text": "as §1, §2, §3", "values": [
      {"molecule": "NC(=O)[C@@H]1CCCN1C(=O)[C@H](Cc1ccccc1)NC(=O)[C@@H](N)CS", "note": "[IL32 tripeptide] (H-Cys-Phe-Pro-NH2; C-terminus assumed)", "Fold improvement in binding affinity (stronger) relative to native 14-residue peptide": "~2 fold"},
      {"molecule": "H-CFAKVLSDDMKKLK-NH2 (C-terminus assumed) [IL32-P4A]", "Fold improvement in binding affinity (stronger) relative to native 14-residue peptide": "approximately 2 fold"},
      {"molecule": "H-CFPAVLSDDMKKLK-NH2 (C-terminus assumed) [IL32-K5A]", "Fold improvement in binding affinity (stronger) relative to native 14-residue peptide": "approximately 2 fold"}
    ]},
    {"biological_target": "T1, ADO (2-aminoethanethiol dioxygenase), iron-bound wild type", "experiment": "SPR binding of peptide/protein substrates to immobilised ADO", "details": "SPR, 4 °C; relative to native RGS5 or IL32 peptide", "from_the_text": "as §1, §2, §3", "units": {"Fold decrease in binding affinity (weaker/higher KD) relative to native 14-residue peptide": "fold"}, "values": [
      {"molecule": "H-CAPKVLSDDMKKLK-NH2 (C-terminus assumed) [IL32-F3A]", "Fold decrease in binding affinity (weaker/higher KD) relative to native 14-residue peptide": "~8"}
    ]}
  ]
}
